The results in this text go back to patent US11596639B2, “Substituted indole Mcl-1 inhibitors” (Vanderbilt University, priority 2016, dated 2023).

Where two headings read alike, the source gives them in different places. Some results are limits rather than exact numbers.

For assay [1], the target named is Mcl-1 (Homo sapiens (Human), UniProt Q07820). Briefly: TR-FRET binding assay, FITC-Bak peptide and MBP-tagged Mcl-1. The following applies: read-out: Ki for Inhibition of Mcl-1 by TR-FRET assay. The protocol:
Compounds are diluted in DMSO in a 16-point, semilog serial dilution scheme. […] The plate was mixed and incubated for 3 hours at room temperature. […] TR-FRET signal is plotted and IC50 and Ki values are calculated in the same manner as the fluorescence polarization anisotropy based competition assays.
A general note: TR-FRET usually uses a lanthanide donor and a delayed reading to cut background.

Assay [2] has as its system H929 human cancer cell lines. Put plainly: Cellular viability / proliferation (Cell TiterGlo, 72 h). Type of assay: cell-based. The procedure, abridged:
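Plating is at 1,000 cells/well in 10% FBS medium; after 24 h, compound is added as a 2-fold series starting at 50 μM with under 1% DMSO.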
On the technique in general: Cellular ATP, detected with luciferase, serves as a proxy for viable cell number.

[3] abbreviates: Homo sapiens, NCI-H929, 72 h, read-out: GI50 on cellular proliferation of H929 human cancer cell lines, H929 cells, 72 h, Cell TiterGlo, 10% FBS.

Chain of Mcl-1 (Q07820 172-327): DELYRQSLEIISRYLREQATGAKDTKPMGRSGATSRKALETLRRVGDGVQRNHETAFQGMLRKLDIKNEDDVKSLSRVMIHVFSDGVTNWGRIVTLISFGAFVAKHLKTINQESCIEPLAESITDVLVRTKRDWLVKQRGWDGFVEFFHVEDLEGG

With `COc1ccc(N2C[C@@H](C)n3c(c(CCCOc4cc(C)c(Cl)c(C)c4)c4ccc(Cl)c(-c5c(C)n[nH]c5C)c43)C2=O)c2c1cc(C(=O)O)n2Cc1ccccn1` [Example 724, (R)-7-(7-chloro-10-(3-(4-chloro-3,5-dimethylphenoxy)propyl)-6-(3,5-dimethyl-1H-pyrazol-4-yl)-4-methyl-1-oxo-3,4-dihydropyrazino[1,2-a]indol-2(1H)-yl)-4-methoxy-1-(pyridin-2-ylmethyl)-1H-indole-2-carboxylic acid], the Ki – broadly, the equilibrium dissociation constant of an inhibitor or competing ligand from its target – in assay [1] is less than 0.2 nM. Further, the GI50 in assay [2] (setting [3]) worked out at 330 nM.
On the same counts, the results for `Cc1cc(OCCCc2c3n(c4c(-c5c(C)nn(C)c5C)c(Cl)ccc24)[C@H](C)CN(c2cc(CCN4CCN(C)CC4)cc4cc(C(=O)O)n(C)c24)C3=O)cc(C)c1Cl` [Example 725, (R)-7-(7-chloro-10-(3-(4-chloro-3,5-dimethylphenoxy)propyl)-4-methyl-1-oxo-6-(1,3,5-trimethyl-1H-pyrazol-4-yl)-3,4-dihydropyrazino[1,2-a]indol-2(1H)-yl)-1-methyl-5-(2-(4-methylpiperazin-1-yl)ethyl)-1H-indole-2-carboxylic acid] are less than 0.2 nM and less than 200 nM.
On the same counts, the results for `Cc1cc(OCCCc2c3n(c4c(-c5c(C)nn(C)c5C)c(Cl)ccc24)[C@H](C)CN(c2c(C)ccc4cc(C(=O)O)n(C)c24)C3=O)cc(C)c1Cl` [Example 726, (R)-7-(7-Chloro-10-(3-(4-chloro-3,5-dimethylphenoxy)propyl)-4-methyl-1-oxo-6-(1,3,5-trimethyl-1H-pyrazol-4-yl)-3,4-dihydropyrazino[1,2-a]indol-2(1H)-yl)-1,6-dimethyl-1H-indole-2-carboxylic acid] are less than 0.2 nM and 260 nM.
In the same order, the values of `COc1ccc(N2C[C@@H](C)n3c(c(CCCOc4cc(C)c(Cl)c(C)c4)c4ccc(Cl)c(-c5c(C)n[nH]c5C)c43)C2=O)c2c1cc(C(=O)O)n2C` [Example 727, (R)-7-(7-chloro-10-(3-(4-chloro-3,5-dimethylphenoxy)propyl)-6-(3,5-dimethyl-1H-pyrazol-4-yl)-4-methyl-1-oxo-3,4-dihydropyrazino[1,2-a]indol-2(1H)-yl)-4-methoxy-1-methyl-1H-indole-2-carboxylic acid] are less than 0.2 nM and 500 nM.
As to `COCCn1c(C(=O)O)cc2c(OC)ccc(N3C[C@@H](C)n4c(c(CCCOc5cc(C)c(Cl)c(C)c5)c5ccc(Cl)c(-c6c(C)n[nH]c6C)c54)C3=O)c21` [Example 728, (R)-7-(7-chloro-10-(3-(4-chloro-3,5-dimethylphenoxy)propyl)-6-(3,5-dimethyl-1H-pyrazol-4-yl)-4-methyl-1-oxo-3,4-dihydropyrazino[1,2-a]indol-2(1H)-yl)-4-methoxy-1-(2-methoxyethyl)-1H-indole-2-carboxylic acid], in assay [1], the Ki is less than 0.2 nM. Besides, the GI50 in assay [2] (setting [3]) amounted to 710 nM.
Take “(R)-7-Chloro-10-(3-(4-chloro-3,5-dimethylphenoxy)propyl)-4-methyl-2-(5-(1-methyl-1H-1,2,4-triazol-3-yl)-1-(2-morpholinoethyl)-1H-indol-3-yl)-4-(1,3,5-trimethyl-1H-pyrazol-4-yl)-3,4-dihydropyrazino[1,2-a]indol-1(2H)-one [Example 583]”: in assay [1], the inhibition constant Ki was 0.73 nM. Further, the GI50 in assay [2] (H929 cells, 72 h, Cell TiterGlo, 10% FBS, read-out: GI50 on cellular proliferation of H929 human cancer cell lines) is less than 200 nM.
